In the Deep4Chem optical property database one finds absorption maximum data, which are given here for 41 compounds.

A short description of this data set: solvent given as SMILES.

On to `COc1ccc2cc(/C=C/c3nc(/C=C/c4ccc(N(c5ccccc5)c5ccccc5)cc4)cc(/C=C/c4ccc(N(c5ccccc5)c5ccccc5)cc4)n3)ccc2c1`, for which the absorption maximum (in ClCCl) was 424 nm.
As to `CC(C)[Si]1(C(C)C)c2cc(C=O)ccc2-c2ccc(N(c3ccccc3)c3ccccc3)cc21`, the absorption maximum reads like this: (in C1CCCCC1) 403 nm; (in CC#N) 392 nm; (in CCO) 396 nm; (in CCOCC) 393 nm; (in CS(C)=O) 398 nm; (in ClCCl) 401 nm. Further, the absorption maximum (in c1ccccc1) came out at 398 nm.
The compound `CCCCCCC1(CCCCCC)c2cc(-c3nc(-c4ccc5c(c4)C(CCCCCC)(CCCCCC)c4cc(N6c7ccccc7Oc7ccccc76)ccc4-5)nc(-c4ccc5c(c4)C(CCCCCC)(CCCCCC)c4cc(N6c7ccccc7Oc7ccccc76)ccc4-5)n3)ccc2-c2ccc(N3c4ccccc4Oc4ccccc43)cc21` gave an absorption maximum (in C1CCOC1) of 391 nm.
Compound `Nc1ccc2c3c(cccc13)C(=O)c1ccccc1-2` registered an absorption maximum (in CO) of 514.14 nm.
Take `COC(=O)C(Cc1ccc2oc(-c3ccncc3)nc2c1)NC(=O)OC(C)(C)C` (stereo unspecified): the absorption maximum turned out to be 307.12 nm (in CC1CCCCC1), 302.86 nm (in CC#N) and 306.08 nm (in CO).
Regarding `C[n+]1ccc(-c2ccc([O-])cc2)cc1`, the absorption maximum was found to be 472 nm (in CC#N); 479 nm (in CC(C)=O); 457 nm (in CC(C)O); 460 nm (in CCC(C)O); 441 nm (in CCCO); 418 nm (in CO). For the same compound, the absorption maximum runs as follows: (in CS(C)=O) 473 nm; (in O) 394 nm.
`c1ccc(C2=C(c3ccccc3)c3cccc4c5c(cc(c34)O2)=NC2CCCCC2N=5)cc1` (stereo unspecified) yielded an absorption maximum (in ClCCl) of 431 nm.
The compound `COCCC1=Cc2nc1ccc1[nH]c(cc1CCOC)c1nc(c(NC(C)=O)cc3[nH]c2cc3CCOC)C(CCOC)=C1` registered an absorption maximum (in Cc1ccccc1) of 670 nm.
Regarding `C(=C\c1ccc2ccccc2c1)/c1ccc(N(c2ccccc2)c2ccccc2)cc1`, the absorption maximum reads like this: (in CC#N) 371 nm; (in CCCCCC) 371 nm.
As for `CCCCN(CCCC)c1ccc(/C=C/c2ccc3nc(/C=C/c4nc5ccc(/C=C/c6ccc(N(CCCC)CCCC)cc6)cc5n(CCC)c4=O)c(=O)n(CCC)c3c2)cc1`, the absorption maximum (in C1COCCO1) came to 528 nm and the absorption maximum (in ClCCl) came to 549 nm.
On to `COC(=O)CCC1=CC(C#Cc2cccs2)=[N+]2C1=Cc1c(CCC(=O)OC)cc(C#Cc3cccs3)n1[B-]2(F)F`, for which the absorption maximum (in ClCCl) is given as 649 nm.
Compound `Cc1cc2nc3[nH]c(=O)n(C)c(=O)c3nc2cc1C` registered an absorption maximum (in CC#N) of 379 nm.
In turn, `COc1ccc(N(c2ccc(OC)cc2)c2ccc(-c3ccc4nc5ccccc5c(=O)n4c3)cc2)cc1` displayed an absorption maximum (in ClCCl) of 361 nm.
Take `Cc1nc(-c2ccc(N3c4ccccc4C(c4ccccc4)(c4ccccc4)c4ccccc43)cc2)cc(-c2ccc(N3c4ccccc4C(c4ccccc4)(c4ccccc4)c4ccccc43)cc2)n1`: where the note is “in Cc1ccccc1”, the absorption maximum came to 370 nm.
Where the note is “in ClCCl”, `CCCCCCc1cc2c3c(c1)c(=C(c1ccccc1)c1ccccc1)c1cc(CCCCCC)cc4c1N3c1c(cc(CCCCCC)cc1c4=C(c1ccccc1)c1ccccc1)c2=C(c1ccccc1)c1ccccc1` displayed an absorption maximum of 405 nm.
Compound `CC(C)(C)NC(=O)c1ccc(C(=O)NC(C)(C)C)c2c1c1c3ccc(Cl)cc3c3cc(Cl)ccc3c1c1c3ccc(Cl)cc3c3cc(Cl)ccc3c21` registered an absorption maximum (in ClCCl) of 395 nm.
With `N#Cc1ccccc1N1c2ccccc2C(c2ccccc2)(c2ccccc2)c2ccccc21`, the absorption maximum (in Cc1ccccc1) stood at 356 nm.
Where the note is “in C1CCOC1”, `CCOc1cc(C=C2c3ccccc3-c3ccccc32)c(OCC)cc1C=C1c2ccccc2C=Cc2ccccc21` registered an absorption maximum of 395 nm.
In turn, `CCCC1=Cc2nc1ccc1[nH]c(c3nc(ccc4[nH]c2cc4CCC)C(CCC)=C3)c(CN(C)C)c1CCC` showed an absorption maximum (in Cc1ccccc1) of 643 nm.
For the compound `CC(C)(C)c1ccc(-c2nc(-c3ccc(-n4c5ccccc5c5c6oc7ccccc7c6ccc54)cc3)nc(-c3ccc(C(C)(C)C)cc3)n2)cc1`, for the setting “in C1CCOC1”, the absorption maximum was determined as 354.46 nm.
As to `COc1cc(/C=C2/SC(=O)NC2=O)ccc1O`, the absorption maximum amounted to 348 nm (in C1CCCCC1); 358 nm (in C1COCCO1); 354 nm (in CC#N); 340 nm (in CN(C)C=O); 355 nm (in CO); 355 nm (in O). Moreover, the absorption maximum by setting is: (in OCC(O)CO) 367 nm; (in OCCO) 361 nm.
Where the note is “in ClCCl”, `CC(C)(C)c1ccc(-c2ccc(-c3ccc(N(c4ccccc4)c4ccccc4)cc3)c3nsnc23)cc1` showed an absorption maximum of 436 nm.
Compound `N#Cc1c(N2CCCCC2)cc(-c2cccs2)c2c1-c1cccc3cccc-2c13` yielded an absorption maximum (in O) of 458 nm.
In turn, `COc1ccc(C2=C(c3ccc(OC)cc3)C(C)(C)c3cc(-c4ccccc4)ccc32)cc1` showed an absorption maximum (in C1CCCCC1) of 305 nm.
`CC1(C)c2ccccc2-c2sc3ccccc3c21`: the absorption maximum (in ClCCl) is 330 nm.
As for `CN(C)c1ccc(/C=C2\CC/C(=C\c3ccc(C#N)cc3)C2=O)cc1`, the absorption maximum is on record as 458 nm (in C1CCOC1); 456 nm (in CC#N); 454 nm (in CC(C)=O); 471 nm (in CC(C)O); 473 nm (in CCCCO); 442 nm (in CCCCOC(C)=O). Further, the absorption maximum is, setting by setting: (in CCCO) 473 nm; (in CCO) 472 nm; (in CCOC(=O)c1ccccc1) 459 nm; (in CCOC(C)=O) 446 nm; (in CCOCC) 438 nm; (in CN(C)C=O) 464 nm. The absorption maximum is, setting by setting: (in CO) 473 nm; (in CS(C)=O) 471 nm; (in Cc1ccccc1) 455 nm; (in ClC(Cl)(Cl)Cl) 446 nm; (in ClC(Cl)Cl) 469 nm; (in ClCCl) 464 nm. The absorption maximum is, setting by setting: (in Clc1ccccc1Cl) 465 nm; (in O=C1CCCC1) 460 nm; (in S=C=S) 464 nm; (in c1ccccc1) 457 nm; (in c1ccncc1) 467 nm.
Consider `c1ccc(N(c2ccccc2)c2ccc3c4cccc5c(N(c6ccccc6)c6ccccc6)ccc(c6cccc2c63)c54)cc1`, for which the absorption maximum turned out to be 493 nm (in C1CCCCC1); 489 nm (in C1CCOC1); 483 nm (in CC#N); 492 nm (in Cc1ccccc1); 490 nm (in ClCCl).
Consider `Cc1cc(C)c(B2c3cc(C(C)(C)C)cc4ccc5ccc6cc(C(C)(C)C)cc2c6c5c34)c(C)c1`, for which the absorption maximum (in C1CCCCC1) is 427 nm.
In turn, `CC1=CC(C)=[N+]2C1=Cc1c3ccccc3c(-c3[nH]c(C)cc3C)n1[B-]2(F)F` gave an absorption maximum (in ClCCl) of 609 nm.
Turning to `CCCCCCCCOc1ccc(-c2c3c4n(c(-c5ccc(OCCCCCCCC)cc5)c3c3n2[B-](F)(F)[n+]2ccccc2N=3)[B-](F)(F)[n+]2ccccc2N=4)cc1`, the absorption maximum (in ClC(Cl)Cl) came out at 638 nm.
Turning to `O=S1(=O)c2ccc(-c3ccc(N(c4ccccc4)c4ccccc4)cc3)cc2C2(c3ccccc3-c3ccccc32)c2cc(-c3ccc(N(c4ccccc4)c4ccccc4)cc3)ccc21`, the absorption maximum (in ClCCl) is listed as 363 nm.
`CC1(C)c2ccccc2N(c2ccc(-c3nc(-c4ccccn4)n(-c4ccccc4)n3)cc2)c2ccccc21` gave an absorption maximum (in ClCCl) of 342 nm.
Consider `Clc1ncc(-c2c3ccccc3c(-c3cnc(Cl)nc3)c3ccccc23)cn1`, for which the absorption maximum turned out to be 394 nm (in CCO) and 396 nm (in ClCCl).
For `CC(C)(C)c1ccc2c(c1)c1cc(C(C)(C)C)cc3c1n2B1c2c-3cccc2-c2cc(C(C)(C)C)cc3c4cc(C(C)(C)C)ccc4n1c23`, the absorption maximum (in C1CCOC1) stood at 387 nm.
As to `CC1(C)CCc2c(c3ccccc3c3nc4c5c(c6ccccc6c4nc23)OC(C)(C)CC5)O1`, the absorption maximum was 458.09 nm (in C1CCOC1); 459.98 nm (in C1COCCO1); 459.98 nm (in CC#N); 454.96 nm (in CC(C)O); 452.08 nm (in CCCCCC); 458.93 nm (in CN(C)C=O). The absorption maximum is, setting by setting: (in CO) 457.04 nm; (in ClC(Cl)Cl) 461.04 nm; (in c1ccccc1) 459.98 nm.
For `CCCCCCN1C(=O)C(c2ccc(-n3c4ccccc4c4ccccc43)cc2)=C(c2ccc(-n3c4ccccc4c4ccccc43)cc2)C1=O`, the absorption maximum runs as follows: (in ClC(Cl)Cl) 421 nm; (in c1ccc2c(c1)c1ccccc1n2-c1ccc(-c2ccc(-n3c4ccccc4c4ccccc43)cc2)cc1) 426 nm.
`CN(C)c1ncc2nc(C#N)n(Cc3ccccc3)c2n1`: the absorption maximum turned out to be 355 nm (in C1COCCO1), 357 nm (in CC#N), 358 nm (in CO) and 361 nm (in ClCCl).
For `Fc1ccc(C2=[N+]3C(=Nc4c5ccccc5c(-c5ccc(F)cc5)n4[B-]3(F)F)c3ccccc32)cc1`, where the note is “in ClCCl”, the absorption maximum is reported as 713 nm.
As for `C=Cc1ccc(OC)c(OC)c1`, the absorption maximum (in C1CCCCC1) turned out to be 309 nm.
The same measure, in the same setting: for `Cc1cc(C)cc(C)c1` the value was 261.57 nm.
As for `N#Cc1ccc2[nH]ccc2c1`, the absorption maximum was 274.85 nm (in C1COCCO1), 275 nm (in CC#N) and 275 nm (in O).
